Results as given in patent US20100184596A1, “METHOD FOR THE CONTROL OF WEEDS IN TURF” (SYNGENTA CROP PROTECTION, INC., priority 2007, published 2010).

Tests used:
Format in all cases: in vivo
[1] = test system: Perennial ryegrass/fine fescue mix; experiment: Phytotoxicity via post emergence spray application (Table B2.4)
Procedure: (§1) The phytotoxicity of the compound of formula I to turfgrass species was tested. The compound was applied via post emergence spray to a range of warm and cool season turfgrass species at various rates and spray treatment treatment regimes. Percentage phytotoxicity assessments were taken at various timepoints.

Bluegrass/fescue mix = experiment: Phytotoxicity via post emergence spray application (Table B2.7); settings: 1 appl
Procedure: as §1

Zoysiagrass v. Empire = experiment: Phytotoxicity in combination with safeners, post emergence spray (Table B4.1); settings: no safener, 100 g ai/ha
Procedure: The phytotoxicity to turfgrass of the compound of formula I in combination with various safeners was tested. The combinations were applied by post emergence spray application. Percentage phytotoxicity assessments were taken at various timepoints. The safeners tested in these trials were cloquintocet-mexyl, cyprosulfamide, a compound of formula 2.3, and isoxadifen-ethyl.

Paspalum sp. = experiment: Weed control via post emergence spray, in common centipedegrass (Table B5.1)
Procedure: The weed control efficacy of the compound of formula I was tested. The compound was applied via post emergence spray to a range of weeds, at various rates and spray treatment treatment regimes. Percentage weed control assessments were taken at various timepoints.

[2] = test system: Trifolium repens (white clover); experiment: Weed control of granule formulations, in St. Augustinegrass V. Delmar (Table B6.1)
Procedure: Two granule formulations were made and tested. Granule A is an inert granule formulation, comprising 99.06 wt % DG Lite 150 granules, 0.14 wt % compound of formula I, 0.50 wt % Sunspray 6N, and 0.30 wt % HiSil 233. The compound of formula I was added to the DG Lite granules while blending in a Continental Rollo-mixer.
Sunspray 6N oil was then sprayed onto the granules, and HiSil added to dry excess liquid and improve granule flowability. The granules were blended in the mixer for 20-30 minutes until homogeneous, and passed through a −12/+60 mesh to remove over and under sized particles.
Granule B is a fertiliser granule formulation, comprising 54.65 wt % urea, 6.63 wt % triple super phosphate, 4.95 wt % potassion chloride, 9.91 wt % huber clay, 7.22 wt % HiSil 233, 0.16 wt % compound of formula I, […] agnique ME 181, 2.07 wt % stepfac 8180, and 11.98 wt % water. […] The remaining HiSil was added and granules dried at 40-60° C., to remove excess liquid. Finally, the granules were passed through a −12/+60 mesh to remove over and under sized particles.
The weed control efficacy of the compound of formula I was tested. […] All treatments were watered-in 1 day after application. Percentage weed control assessments were taken at various timepoints.

COCCOCc1nc(C(F)(F)F)ccc1C(=O)C1=C(O)C2CCC(C2)C1=O (centres unmarked) [Formula I, 4-Hydroxy-3-[2-(2-methoxyethoxymethyl)-6-trifluoromethylpyridine-3-carbonyl]-bicyclo[3.2.1]oct-3-en-2-one]
% phytotoxicity ([1]; 1 appl, 140 g ai/ha, 6 DAT): 4.00%
% phytotoxicity ([1]; 1 appl, 140 g ai/ha, 14 DAT): 18.75%
% phytotoxicity ([1]; 1 appl, 140 g ai/ha, 21 DAT): 6.75%
% phytotoxicity ([1]; 1 appl, 140 g ai/ha, 28 DAT): 2.50%
% phytotoxicity ([1]; 1 appl, 140 g ai/ha, 34 DAT): 0.50%
% phytotoxicity ([1]; 1 appl, 140 g ai/ha, 39 DAT): 0.00%
% phytotoxicity ([1]; 1 appl, 140 g ai/ha, 49 DAT): 3.75%
% phytotoxicity ([1]; 1 appl, 280 g ai/ha, 6 DAT): 4.50%
% phytotoxicity ([1]; 1 appl, 280 g ai/ha, 14 DAT): 25.00%
% phytotoxicity ([1]; 1 appl, 280 g ai/ha, 21 DAT): 6.25%
% phytotoxicity ([1]; 1 appl, 280 g ai/ha, 28 DAT): 1.75%
% phytotoxicity ([1]; 1 appl, 280 g ai/ha, 34 DAT): 1.25%
% phytotoxicity ([1]; 1 appl, 280 g ai/ha, 39 DAT): 0.00%
% phytotoxicity ([1]; 1 appl, 280 g ai/ha, 49 DAT): 0.00%
% phytotoxicity ([1]; 2 appl, 140 g ai/ha, 6 DAT): 3.00%
% phytotoxicity ([1]; 2 appl, 140 g ai/ha, 14 DAT): 20.00%
% phytotoxicity ([1]; 2 appl, 140 g ai/ha, 21 DAT): 6.75%
% phytotoxicity ([1]; 2 appl, 140 g ai/ha, 28 DAT): 2.75%
% phytotoxicity ([1]; 2 appl, 140 g ai/ha, 34 DAT): 10.50%
% phytotoxicity ([1]; 2 appl, 140 g ai/ha, 39 DAT): 8.75%
% phytotoxicity ([1]; 2 appl, 140 g ai/ha, 49 DAT): 4.25%
% phytotoxicity ([1]; 2 appl, 280 g ai/ha, 6 DAT): 3.50%
% phytotoxicity ([1]; 2 appl, 280 g ai/ha, 14 DAT): 28.75%
% phytotoxicity ([1]; 2 appl, 280 g ai/ha, 21 DAT): 11.00%
% phytotoxicity ([1]; 2 appl, 280 g ai/ha, 28 DAT): 17.50%
% phytotoxicity ([1]; 2 appl, 280 g ai/ha, 34 DAT): 22.50%
% phytotoxicity ([1]; 2 appl, 280 g ai/ha, 39 DAT): 23.75%
% phytotoxicity ([1]; 2 appl, 280 g ai/ha, 49 DAT): 10.00%
% phytotoxicity (Bluegrass/fescue mix; 10 g ai/ha, 7 DAT): 0.00%
% phytotoxicity (Bluegrass/fescue mix; 10 g ai/ha, 14 DAT): 0.00%
% phytotoxicity (Bluegrass/fescue mix; 10 g ai/ha, 22 DAT): 0.00%
% phytotoxicity (Bluegrass/fescue mix; 10 g ai/ha, 29 DAT): 0.00%
% phytotoxicity (Bluegrass/fescue mix; 10 g ai/ha, 46 DAT): 0.00%
% phytotoxicity (Bluegrass/fescue mix; 20 g ai/ha, 7 DAT): 0.00%
% phytotoxicity (Bluegrass/fescue mix; 20 g ai/ha, 14 DAT): 0.00%
% phytotoxicity (Bluegrass/fescue mix; 20 g ai/ha, 22 DAT): 0.00%
% phytotoxicity (Bluegrass/fescue mix; 20 g ai/ha, 29 DAT): 0.00%
% phytotoxicity (Bluegrass/fescue mix; 20 g ai/ha, 46 DAT): 0.00%
% phytotoxicity (Bluegrass/fescue mix; 40 g ai/ha, 7 DAT): 0.00%
% phytotoxicity (Bluegrass/fescue mix; 40 g ai/ha, 14 DAT): 0.00%
% phytotoxicity (Bluegrass/fescue mix; 40 g ai/ha, 22 DAT): 0.00%
% phytotoxicity (Bluegrass/fescue mix; 40 g ai/ha, 29 DAT): 0.00%
% phytotoxicity (Bluegrass/fescue mix; 40 g ai/ha, 46 DAT): 0.00%
% phytotoxicity (Bluegrass/fescue mix; 80 g ai/ha, 7 DAT): 0.00%
% phytotoxicity (Bluegrass/fescue mix; 80 g ai/ha, 14 DAT): 0.00%
% phytotoxicity (Bluegrass/fescue mix; 80 g ai/ha, 22 DAT): 0.00%
% phytotoxicity (Bluegrass/fescue mix; 80 g ai/ha, 29 DAT): 0.00%
% phytotoxicity (Bluegrass/fescue mix; 80 g ai/ha, 46 DAT): 0.00%
% phytotoxicity (Bluegrass/fescue mix; 160 g ai/ha, 7 DAT): 0.00%
% phytotoxicity (Bluegrass/fescue mix; 160 g ai/ha, 14 DAT): 2.50%
% phytotoxicity (Bluegrass/fescue mix; 160 g ai/ha, 22 DAT): 0.00%
% phytotoxicity (Bluegrass/fescue mix; 160 g ai/ha, 29 DAT): 0.00%
% phytotoxicity (Bluegrass/fescue mix; 160 g ai/ha, 46 DAT): 0.00%
% phytotoxicity (Zoysiagrass v. Empire; 6 DAT): 11.70%
% phytotoxicity (Zoysiagrass v. Empire; 12 DAT): 63.30%
% phytotoxicity (Zoysiagrass v. Empire; 19 DAT): 68.30%
% phytotoxicity (Zoysiagrass v. Empire; 27 DAT): 51.70%
% phytotoxicity (Zoysiagrass v. Empire; 35 DAT): 40.00%
% control (Paspalum sp.; 1 appl, 140 g ai/ha, 5 DAT): 16.67%
% control (Paspalum sp.; 1 appl, 140 g ai/ha, 13 DAT): 60.00%
% control (Paspalum sp.; 1 appl, 140 g ai/ha, 21 DAT): 55.00%
% control (Paspalum sp.; 1 appl, 140 g ai/ha, 27 DAT): 46.67%
% control (Paspalum sp.; 1 appl, 140 g ai/ha, 35 DAT): 21.67%
% control (Paspalum sp.; 1 appl, 140 g ai/ha, 42 DAT): 6.67%
% control (Paspalum sp.; 1 appl, 140 g ai/ha, 61 DAT): 13.33%
% control (Paspalum sp.; 1 appl, 280 g ai/ha, 5 DAT): 21.67%
% control (Paspalum sp.; 1 appl, 280 g ai/ha, 13 DAT): 71.67%
% control (Paspalum sp.; 1 appl, 280 g ai/ha, 21 DAT): 70.00%
% control (Paspalum sp.; 1 appl, 280 g ai/ha, 27 DAT): 60.00%
% control (Paspalum sp.; 1 appl, 280 g ai/ha, 35 DAT): 43.33%
% control (Paspalum sp.; 1 appl, 280 g ai/ha, 42 DAT): 20.00%
% control (Paspalum sp.; 1 appl, 280 g ai/ha, 61 DAT): 18.33%
% control (Paspalum sp.; 2 appl, 140 g ai/ha, 5 DAT): 20.00%
% control (Paspalum sp.; 2 appl, 140 g ai/ha, 13 DAT): 61.67%
% control (Paspalum sp.; 2 appl, 140 g ai/ha, 21 DAT): 61.67%
% control (Paspalum sp.; 2 appl, 140 g ai/ha, 27 DAT): 56.67%
% control (Paspalum sp.; 2 appl, 140 g ai/ha, 35 DAT): 83.33%
% control (Paspalum sp.; 2 appl, 140 g ai/ha, 42 DAT): 81.67%
% control (Paspalum sp.; 2 appl, 140 g ai/ha, 61 DAT): 70.00%
% control (Paspalum sp.; 2 appl, 280 g ai/ha, 5 DAT): 20.00%
% control (Paspalum sp.; 2 appl, 280 g ai/ha, 13 DAT): 68.33%
% control (Paspalum sp.; 2 appl, 280 g ai/ha, 21 DAT): 68.33%
% control (Paspalum sp.; 2 appl, 280 g ai/ha, 27 DAT): 58.33%
% control (Paspalum sp.; 2 appl, 280 g ai/ha, 35 DAT): 91.67%
% control (Paspalum sp.; 2 appl, 280 g ai/ha, 42 DAT): 95.00%
% control (Paspalum sp.; 2 appl, 280 g ai/ha, 61 DAT): 81.67%
% control ([2]; Granule A (inert), 112 g ai/ha, 7 DAT): 46.70%
% control ([2]; Granule A (inert), 112 g ai/ha, 11 DAT): 63.30%
% control ([2]; Granule A (inert), 112 g ai/ha, 15 DAT): 66.70%
% control ([2]; Granule A (inert), 112 g ai/ha, 20 DAT): 63.30%
% control ([2]; Granule A (inert), 112 g ai/ha, 28 DAT): 50.00%
% control ([2]; Granule A (inert), 280 g ai/ha, 7 DAT): 56.70%
% control ([2]; Granule A (inert), 280 g ai/ha, 11 DAT): 76.70%
% control ([2]; Granule A (inert), 280 g ai/ha, 15 DAT): 78.30%
% control ([2]; Granule A (inert), 280 g ai/ha, 20 DAT): 70.00%
% control ([2]; Granule A (inert), 280 g ai/ha, 28 DAT): 51.70%
% control ([2]; Granule B (fertiliser), 112 g ai/ha, 7 DAT): 53.30%
% control ([2]; Granule B (fertiliser), 112 g ai/ha, 11 DAT): 70.00%
% control ([2]; Granule B (fertiliser), 112 g ai/ha, 15 DAT): 76.70%
% control ([2]; Granule B (fertiliser), 112 g ai/ha, 20 DAT): 75.00%
% control ([2]; Granule B (fertiliser), 112 g ai/ha, 28 DAT): 70.00%
% control ([2]; Granule B (fertiliser), 280 g ai/ha, 7 DAT): 66.70%
% control ([2]; Granule B (fertiliser), 280 g ai/ha, 11 DAT): 80.00%
% control ([2]; Granule B (fertiliser), 280 g ai/ha, 15 DAT): 85.00%
% control ([2]; Granule B (fertiliser), 280 g ai/ha, 20 DAT): 88.30%
% control ([2]; Granule B (fertiliser), 280 g ai/ha, 28 DAT): 81.70%
% control ([2]; Spray, 112 g ai/ha, 7 DAT): 63.30%
% control ([2]; Spray, 112 g ai/ha, 11 DAT): 78.30%
% control ([2]; Spray, 112 g ai/ha, 15 DAT): 81.70%
% control ([2]; Spray, 112 g ai/ha, 20 DAT): 76.70%
% control ([2]; Spray, 112 g ai/ha, 28 DAT): 76.70%
% control ([2]; Spray, 280 g ai/ha, 7 DAT): 71.70%
% control ([2]; Spray, 280 g ai/ha, 11 DAT): 86.70%
% control ([2]; Spray, 280 g ai/ha, 15 DAT): 90.00%
% control ([2]; Spray, 280 g ai/ha, 20 DAT): 91.70%
% control ([2]; Spray, 280 g ai/ha, 28 DAT): 76.70%
